Test results from article PMC8389922, “First-in-Class Cyclic Temporin L Analogue: Design, Synthesis, and Antimicrobial Assessment” (Journal of Medicinal Chemistry, 2021).
Values after ≈ are worked out from the molar mass of the structure shown. Square brackets hold non-standard residues; d marks the D form. Peptide text beside a SMILES is read from it.

Assays:
[1] = test system: S. epidermidis ATCC 12228; format: cell-based, Staphylococcus epidermidis
Procedure, shortened: (§1)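 MICs were determined by broth microdilution, with bacteria at a final 1 × 10^6 CFU/mL and peptides tested from 100 to 0.78 μM.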

[2] = 90% fresh human serum (male AB plasma), 37 ± 1 °C, peptide 0.2 mM, MeCN precipitation, RP-UHPLC peak area at 220 nm, triplicate
Protocol: (§4) Peptides were incubated with 90% fresh human serum at 37 ± 1 °C within 12 h.[69] The percentage of intact peptide was monitored by calculating the peak area of the chromatogram from RP-HPLC analysis.
(§5) The peptide was incubated in a 1.5 mL eppendorf tube with human serum at a final concentration of 0.2 mM, and the mixture was incubated at 37 ± 1 °C for different periods (0.25, 0.75, 1.5, 2, 3, 4, 6, 7, 8, and 12 h). After the incubation period, an aliquot of reaction solution was taken and added MeCN (double volume respect to the aliquot) for the precipitation of serum proteins present in human serum. The produced cloudy solution was cooled (4 °C) for 15 min and then centrifuged at 13 000 rpm for 10 min to remove the serum protein as pellet. Then, the supernatant was analyzed by RP-UHPLC using a linear elution gradient from 10 to 90% MeCN (0.1% TFA) in water (0.1% TFA) over 20 min. A flow rate of 1 mL/min was employed, and the absorbance of the eluting peaks was detected at 220 nm. The proteolytic stability assay was repeated in triplicate.

E. coli ATCC 25922 = format: cell-based, Escherichia coli
Procedure, shortened: as §1

P. aeruginosa ATCC 27853 = format: cell-based, Pseudomonas aeruginosa
Procedure, shortened: as §1

[3] = test system: preformed biofilm of S. aureus ATCC 25923; conditions: ATCC 25923, 20 h
Protocol: (§2) Biofilm viability was determined as indicated in the Materials and General Procedures section and expressed as a percentage compared to that of untreated samples (100%). Values are the mean of at least three replicates ± SEM. Data are considered to be statistically significant as follows: *p < 0.05; ***p < 0.001; ****p < 0.0001. Biofilm eradication concentration 90, BEC90, was defined as the concentration able to reduce at least 90% of biofilm cells. TEXT PRINTED IN THE PICTURE: 9: S. aureus ATCC 25923: BEC90 = 25 μM; A. baumannii ATCC 19606: BEC90 > 100 μM | 12: S. aureus ATCC 25923: BEC90 = 12.5 μM; A. baumannii ATCC 19606: BEC90 = 25 μM
(§3) Preformed biofilms of S. aureus ATCC 25923 and A. baumannii ATCC 19606 were obtained as previously reported.[77] Microbial cultures were grown in Luria-Bertani broth (LB) at 37 °C to an optical density (OD) of 0.8 (λ = 590 nm) and then diluted in LB to a cell density of 1 × 10^6 colony-forming units (CFUs)/mL. Aliquots of 100 μL were dispensed into the wells of a 96-well plate, which was incubated for 20 h at 37 °C to allow biofilm formation. The medium containing planktonic cells was then aspirated from the wells and washed twice with 150 μL of phosphate-buffered saline (PBS) to remove any nonadherent cells. […] After treatment, each well was rinsed twice with PBS, as previously described. Then, 150 μL of MTT solution (0.5 mg/mL) were added to each well to evaluate biofilm cell viability. The plates were incubated at 37 °C for 4 h in the dark, and the reaction was stopped by adding sodium dodecyl sulfate (SDS) (at a final concentration of 5% v/v). The absorbance of each well was recorded at 570 nm using a microplate reader (Infinite M200; Tecan, Salzburg, Austria), and the percentage of biofilm cells viability was calculated with respect to the untreated samples (100%).

[4] = test system: preformed biofilm of A. baumannii ATCC 19606; conditions: ATCC 19606, 20 h
Protocol: as §2, §3

A. baumannii ATCC 19606 = format: cell-based, Acinetobacter baumannii
Procedure, shortened: as §1

S. aureus ATCC 25923 = format: cell-based, Staphylococcus aureus
Procedure, shortened: as §1

circular dichroism = conditions: water; pH ns; 25 °C; 50 uM
in vitro = conditions: male, human, 90% fresh human serum
Protocol: as §4, §5

B. megaterium Bm11 = format: cell-based, Bacillus megaterium
Procedure, shortened: as §1

[5] = test system: S. aureus ATCC 43300, a methicillin-resistant strain (MRSA); format: cell-based, Staphylococcus aureus
Protocol: Thus, 12 was further tested against S. aureus ATCC 43300, a methicillin-resistant strain (MRSA), and compared with the linear precursor 9. […] No growth was observed after 24 h. Peptide 9 was bactericidal as well, by killing MRSA within 10 min, but at a higher concentration (25 μM).
The bacterial strains used in the antimicrobial assays were the Gram-negative E. coli ATCC 25922, P. aeruginosa ATCC 27853, A. baumannii ATCC 19606, the Gram-positive S. aureus ATCC 25923, S. epidermidis ATCC 12228, and B. megaterium Bm11. Methicillin-resistant S. aureus (MRSA) ATCC 43300 was obtained from Culture Collection Center of School of Basic Medical Sciences of Lanzhou University (China).
The determination of MICs was conducted as previously reported.[61] Aliquots of 50 μL of bacterial culture appropriately diluted were added to each well of a 96-well plate to reach a final cell density of 1 × 10^6 CFU/mL and a final peptide concentration ranging from 100 to 0.78 μM (final volume 100 μL).

FtsZ protein = conditions: E. coli divisome; cited from earlier work
Text: Temporins are AMPs and belong to the group of host defense peptides (HDP), originally isolated from the amphibian skin secretions of the […] Rana temporaria.[29] Their sequences are composed of 10–14 amino acids, amidated at the C-terminus. In hydrophobic environments, temporins fold into an amphipathic α-helix that, along with their cationic nature at physiological pH (from +2 to +3), is accountable for their biological behavior.

## CC[C@H](C)[C@H](NC(=O)[C@H](CCCNC(=N)N)NC(=O)CNC(=O)[C@@H](CC(C)C)NC(=O)[C@H](Cc1ccccc1)NC(=O)[C@H](CCCCN)NC(=O)[C@H](CO)NC(=O)[C@H](Cc1ccccc1)NC(=O)[C@H](Cc1c[nH]c2ccccc12)NC(=O)[C@@H]1CCCN1C(=O)[C@@H](NC(=O)[C@@H](N)Cc1ccccc1)C(C)C)C(=O)N[C@@H](CC(C)C)C(N)=O [compound 9, [Pro^3,DLeu^9]TL, reference compound] (H-FVPWFSKF[dL]GRIL-NH2)
[1]
  MIC S. epidermidis ATCC 12228: 6.25 µM (≈ 10.1 µg/mL)
[2]
  time to complete degradation in human serum: ≤ 6 h
E. coli ATCC 25922
  MIC E. coli ATCC 25922: 12.5 µM (≈ 20.1 µg/mL)
P. aeruginosa ATCC 27853
  MIC P. aeruginosa ATCC 27853: 50 µM (≈ 80.5 µg/mL)
[3]
  Biofilm Eradication Concentration 90 (BEC90) S. aureus ATCC 25923: 25 µM
[4]
  Biofilm Eradication Concentration 90 (BEC90) A. baumannii ATCC 19606: > 100 µM
A. baumannii ATCC 19606
  MIC A. baumannii ATCC 19606: 6.25 µM (≈ 10.1 µg/mL)
S. aureus ATCC 25923
  MIC S. aureus ATCC 25923: 6.25 µM (≈ 10.1 µg/mL)
Circular dichroism
  helicity: 3%
In vitro
  metabolised at 0.75 h, 0.2 mM: ~40%
B. megaterium Bm11
  MIC B. megaterium Bm11: 1.56 µM (≈ 2.51 µg/mL)
[5]
  MIC S. aureus ATCC 43300 (MRSA): 25 µM (≈ 40.2 µg/mL)

## FVQWFSKFLGRIL [compound 7, Temporin L]
FtsZ protein
  Kd: 17.4 ± 0.8 nM
